The text below walks through data of patent publication US20110269680A1 (PANACEA BIOTEC LIMITED, priority 2008, published 2011).

Series [1] has as its target T1, DPP-IV (Homo sapiens, UniProt P27487).
T1 construct: purchased Sigma-Aldrich
Description: DPP-IV resistant assay. The series is classed as in vitro ADME. As to the method: 20 μM of peptides of the present invention (Sequence IDs—01, 02, 03, 04, 05, 06, 11, 12 and 13) were incubated with 60 mU/2 ml of DPP-IV (Sigma-Aldrich) enzyme at room temperature (22-24° C.) in 20 mM Tris HCl buffer, pH 8.0. The aliquots were analyzed for the amount of undegraded peptide concentration at different time intervals by RP-HPLC. The peak area integration was used to determine the amount of undegraded peptide (U.S. Pat. No. 7,067,488). T1/2 of each peptide was determined from the graph plotted between peak area of undegraded peptide vs. time. The peak area of DPP-IV untreated peptide in above mentioned buffer condition of same concentration was considered as time zero. […]

In series [2] the target is T2, NEP 24.11 (Homo sapiens, UniProt P08473).
T2 construct: purchased Calbiochem
Put plainly: NEP 24.11 resistant (degradation) assay. The series is classed as in vitro ADME. The following applies: pH 7.4. How it is done:
The aliquots were analyzed for the amount of undegraded peptide concentration at different time intervals using RP-HPLC by peak area integration. T1/2 of each peptide was determined from the graph plotted between peak area of undegraded peptide vs time.

Series [3] has as its system C57/BL6 male mice. Description: OGTT and dose response effect of peptide of Seq ID No. 01. The series is classed as in vivo. As to the method:
C57/BL6 male mice were fasted for 6 hrs. After 6 h of fasting, blood was drawn from a small tail clip for glucose level determination. […] Glucose was given orally at the ratio 1 mg/g body wt. per mouse 5 min after the administration of peptide. Blood glucose levels were determined at different time intervals i.e. at 0, 15, 30, 60, and 120 min during a period of 2 hours using a portable glucometer. The saline solution was used as control negative in the experiment.

Series [4] deals with db/db mice. Put plainly: Anti-diabetic activity of peptide in db/db mice. The conditions noted are these: 25 nmol/kg daily i.p., versus saline. The series is classed as in vivo. As to the method:
Animals of two different age groups (6-8 and 10-12 weeks old db/db mice) were included in this study. 6-8 week old mice were chosen as pre-diabetic mice and 10-12 week old as the full-diabetic mice. The preventive effect of peptide of Seq. ID No. 01 on the progression of diabetes in pre-diabetic mice was examined. The effect of peptide of Seq. ID No. 01 in full-diabetic mice was also studied. […] Blood glucose levels were measured on day 0, 14, 28 and 42. Test peptide of Seq ID No. 01 was injected i.p. according to body weight and the feed was removed. Mice were not fed till 4 hrs following injection of the peptide on the day of blood sample testing. Normal chow was given after the 4 hr time point. […] Test compound/vehicle (saline solution i.e. control negative) to be administered at 0 hr.

T1 sequence (P27487 whole entry, species assumed): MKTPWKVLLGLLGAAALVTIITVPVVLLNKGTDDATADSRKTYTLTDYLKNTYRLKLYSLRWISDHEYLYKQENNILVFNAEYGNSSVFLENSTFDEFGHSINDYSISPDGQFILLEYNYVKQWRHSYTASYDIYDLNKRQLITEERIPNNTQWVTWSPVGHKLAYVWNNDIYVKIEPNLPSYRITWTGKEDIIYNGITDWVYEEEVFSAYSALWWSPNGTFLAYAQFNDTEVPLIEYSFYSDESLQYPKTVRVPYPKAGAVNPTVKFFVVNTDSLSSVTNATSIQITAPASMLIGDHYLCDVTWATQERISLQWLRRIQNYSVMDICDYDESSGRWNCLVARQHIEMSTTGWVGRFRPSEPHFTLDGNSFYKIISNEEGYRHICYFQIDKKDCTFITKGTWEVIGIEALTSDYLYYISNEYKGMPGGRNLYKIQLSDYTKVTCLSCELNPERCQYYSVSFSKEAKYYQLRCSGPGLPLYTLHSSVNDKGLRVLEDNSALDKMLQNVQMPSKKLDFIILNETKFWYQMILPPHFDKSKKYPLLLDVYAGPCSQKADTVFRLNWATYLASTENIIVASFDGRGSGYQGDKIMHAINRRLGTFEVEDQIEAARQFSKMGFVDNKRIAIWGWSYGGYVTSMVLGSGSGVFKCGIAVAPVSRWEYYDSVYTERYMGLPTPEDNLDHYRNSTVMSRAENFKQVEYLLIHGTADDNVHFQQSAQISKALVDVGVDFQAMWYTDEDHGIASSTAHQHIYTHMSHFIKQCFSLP
T2 sequence (P08473 whole entry): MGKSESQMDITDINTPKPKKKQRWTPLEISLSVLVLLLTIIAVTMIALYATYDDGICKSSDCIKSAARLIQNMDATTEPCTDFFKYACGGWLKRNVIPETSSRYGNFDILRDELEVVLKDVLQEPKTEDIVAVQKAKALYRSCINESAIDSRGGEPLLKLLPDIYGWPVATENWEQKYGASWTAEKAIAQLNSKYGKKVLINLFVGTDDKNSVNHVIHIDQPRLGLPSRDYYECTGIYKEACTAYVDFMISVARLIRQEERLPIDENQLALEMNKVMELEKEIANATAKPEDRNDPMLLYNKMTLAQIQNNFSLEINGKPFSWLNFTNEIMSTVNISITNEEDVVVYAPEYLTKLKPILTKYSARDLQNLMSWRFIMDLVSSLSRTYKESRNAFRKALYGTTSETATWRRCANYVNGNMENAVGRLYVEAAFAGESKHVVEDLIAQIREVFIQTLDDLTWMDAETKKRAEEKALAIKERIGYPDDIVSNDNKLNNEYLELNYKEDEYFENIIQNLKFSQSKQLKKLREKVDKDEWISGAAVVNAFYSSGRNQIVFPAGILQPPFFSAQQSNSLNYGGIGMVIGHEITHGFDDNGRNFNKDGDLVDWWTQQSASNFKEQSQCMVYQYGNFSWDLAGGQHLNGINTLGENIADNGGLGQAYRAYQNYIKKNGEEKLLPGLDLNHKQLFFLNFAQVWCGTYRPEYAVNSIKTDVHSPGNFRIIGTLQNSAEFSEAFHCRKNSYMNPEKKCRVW

Regarding `CC[C@H](C)[C@H](NC(=O)[C@H](Cc1ccccc1)NC(=O)[C@H](CCC(=O)O)NC(=O)[C@H](CCCCN)NC(=O)[C@H](C)NC(=O)[C@H](C)NC(=O)[C@H](CCC(N)=O)NC(=O)CNC(=O)[C@H](CCC(=O)O)NC(=O)[C@H](CC(C)C)NC(=O)[C@H](Cc1ccc(O)cc1)NC(=O)[C@H](CO)NC(=O)[C@H](CO)NC(=O)[C@@H](NC(=O)[C@H](CC(=O)O)NC(=O)[C@H](CO)NC(=O)[C@@H](NC(=O)[C@H](Cc1ccccc1)NC(=O)[C@@H](NC(=O)CNC(=O)[C@H](CCC(=O)O)NC(=O)c1ccc(CNC(=O)[C@@H](N)Cc2c[nH]cn2)o1)[C@@H](C)O)[C@@H](C)O)C(C)C)C(=O)N[C@@H](C)C(=O)N[C@@H](Cc1c[nH]c2ccccc12)C(=O)N[C@@H](CC(C)C)C(=O)N[C@H](C(=O)N[C@@H](CCCCN)C(=O)NCC(=O)N[C@@H](CCCNC(=N)N)C(=O)NCC(N)=O)C(C)C` [Seq ID No. 01], the “Percentage degradation in hrs” value in series [1] was 25%. Besides, the half-life – broadly, the time needed for the level to fall by half in the phase considered – at 20 μM in series [1] (pH 8) is greater than 72 h; in series [2] (buffer), 29 h. Besides, in series [2] (isolated enzyme neprilysin), the metabolised at 54 h, 20 μM is 92.6%. The optimum dose in series [3] (OGTT dose response, intraperitoneally) was determined as 25 nmol/kg. For the same compound, in series [3] (OGTT, 100, 25, 10, 5 and 1 nmol/kg intraperitoneally, FIG. 11), the “dose response, percent reduction in blood glucose (AUC0-60)” value was “no significant difference between 100 nmol and 25 nmol doses”. Moreover, the “blood glucose level, progression of diabetes” value in series [4] (6-8 weeks old db/db mice, 42 days) is on record as “delayed the progression of diabetes as compared to control negative group”. In series [4] (10-12 weeks old db/db mice, 28 days), the “blood glucose level, activity versus control negative” value is listed as “better activity as compared to control negative group”.
